Data: patent publication US20200129592A1, “COMPOSITION FOR TREATING STROKE AND METHOD FOR SCREENING THE SAME” (CHA University Industry-Academic Cooperation Foundation, priority 2018, published 2020)

Experiments:
Type in all cases: cell-based, mouse
Raw 264.7 cells [1] = assay: IL-1β and IL-1ra ELISA in supernatants of Raw 264.7 cells; conditions: LPS alone
Method: A mouse macrophage cell line (Raw 264.7 cell, ATCC, VA) was cultured according to the manufacturer's instructions. The raw 264.7 cells were treated with either LPS (100 ng/ml, Sigma-Aldrich, MO) or LPS together with hUMSCs-CM for 24 hrs, and the supernatants were isolated from each treated group.
(§1) IL-1β and IL-1ra levels were measured in supernatants of Raw 264.7 cells using commercially available ELISA kits (IL-1β Quantikine ELISA and IL-1 ra Quantikine ELISA kits, R&D Systems, MN).

Raw 264.7 cells [2] = assay: Knockdown of CREB by siRNA in Raw 264.7 cells
Method: After Raw 264.7 cells (2×10^5) were plated in 6-well plates, transfection with 100 nM of CREB siRNA (siCREB) and control (siCtr) was performed for 48 hrs using Lipofectamine 3000 reagent (Invitrogen, MA) according to the manufacturer's instructions. The siCREB (sense: 5′-[…]-3″, antisense: 5′-[…]-3″) and siCtr (sense: 5-ACGUGACACGUUCGGAGAA-3′, antisense: 5′-UUCUCCGAACGUGUCACGU-3″) were purchased from Genolution Pharmaceuticals, Inc. After transfection, the RNA and proteins were isolated and used for PCR and western blotting, respectively.

Raw 264.7 cells [3] = assay: Inhibition of p-CREB with KG501, IL-1ra ELISA in Raw 264.7 cells; conditions: KG501 2, 5, 10 μM pretreatment 45 min, then hUMSCs-CM with LPS 200 ng/ml
Method: Raw 264.7 cells (2×10^5) were seeded onto the plate, and incubated for 24 hrs. The cells were pretreated with a serum-free medium containing KG501 (2 μM, 5 μM, and 10 μM, Sigma-Aldrich, MO) for 45 min. The supernatant was then removed from the dish, and the cells were treated with hUMSCs-CM in the presence of LPS (200 ng/ml). The supernatant was used for IL-1ra ELISA analysis. Independent experiments were triplicated on different days.
as §1

With lipopolysaccharide [LPS] the “IL-1ra level in Raw 264.7 cells” value (Raw 264.7 cells [1]) was “strongly elevated” and the “IL-1β level in Raw 264.7 cells” value (Raw 264.7 cells [1]) was “strongly elevated”.

“siCREB: CREB siRNA, sense 5′-CCACAAAUCAGAUUAAUUUUU-3″, antisense 5′-AAAUUAAUCUGAUUUGUGGUU-3″ (chemistry not given here)” was tested, and the “enhanced expression of IL1RN induced by hUMSCs-CM” value (Raw 264.7 cells [2]; LPS-stimulated Raw 264.7 cells, knockdown of CREB) was “reduced” and the “expression of IL-1ra protein in Raw 264.7 cells” value (Raw 264.7 cells [2]; transfection with 100 nM siCREB, 48 hrs) was “reduced”.

In the case of `O=C(Nc1ccc(Cl)cc1)c1cc2ccccc2cc1OP(=O)(O)O` [KG501], the “increase of IL-1ra expression by hUMSCs-CM treatment” value (Raw 264.7 cells [3]) is reported as “inhibited in a CREB inhibitor dose-dependent manner”.
